# Measurements: patent US4871774A, “Medical treatment” (The Boots Company PLC, priority 1987, dated 1989)
# Like-named read-outs stand apart in the source and are kept apart here.
# Assays:
# [1] = test system: brain DOPAC (turnover of dopamine); test: Turnover of dopamine in rodent brains by determination of DOPAC concentrations (mouse); assay type: in vivo, mouse (CD1); details: whole brain, 10 mg/kg oral, 2 h
# Description: (§1) (7) Measurement of the turnover of dopamine in rodent brains by determination of DOPAC concentrations following drug administration
# (§2) Inhibition of dopamine reuptake in the brain reduces the rate at which dopamine is synthesised and metabolised (the turnover rate). This can be assessed by measuring the amount of the dopamine metabolite DOPAC (dihydroxyphenylacetic acid) which accumulates in the brains of rats and mice. In addition, the administration of probenecid blocks active transport of DOPAC out of the brain. The subsequent rise in brain DOPAC concentrations is attenuated by drugs which inhibit dopamine reuptake.
# One group of animals was killed two hours later. […] Aliquots (50 μl) of the clear supernatants were then injected automatically into the chromatographic system for the separation and quantification of DOPAC.
# High pressure liquid chromatography (HPLC) combined with electrochemical detection (ECD) was employed to assay DOPAC. […] The controller was set at 20 nA full-scale and output from the cell recorded using a Spectra-Physics 4100 automatic computing integrator. Quantification of DOPAC was effected by the computing integrator after calibration of the HPLC-ECD system using DOPAC of known concentration and including isoprenaline as an internal standard. […]
# [2] = test system: uptake of dopamine into synaptosomes from rat striata; test: Inhibition of dopamine uptake in vitro by plasma from drug treated rats obtained over a period of time after a single 30 mg/kg dose; assay type: biochemical; details: for % Inhibition of dopamine uptake - Mean (± SEM): 30 mg/kg oral
# Experimental: (4) Inhibition of dopamine uptake in vitro by plasma from drug treated rats obtained over a period of time after a single 30 mg/kg dose
# The percentage inhibition of dopamine uptake was determined in a similar manner to that described in (3) above. […]
# [3] = test system: uptake of dopamine into striatal synaptosomes; test: In vitro inhibition of dopamine uptake (14C-dopamine, rat striatal synaptosomes); assay type: biochemical, rat (Sprague-Dawley); details: for IC50: 0.17 μM 14C-dopamine
# Experimental: (1) In vitro inhibition of dopamine uptake
# Male Sprague-Dawley rats (Charles River) were killed by cervical dislocation and the brains removed and placed in an ice-cold oxygenated Krebs solution containing 120 mM NaCl, 4.7 mM KCl, 2.1 mM KH2 PO4, 1.2 mM CaCl2, 0.6 mM MgSO4, 25 mM NaHCO3 and 11 mM glucose. The brains were then dissected according to the method of Glowinski and Iversen [J. Neurochem. (1966) 13 655-669] and the striata removed. The samples of striata were pooled, weighed and transferred to a glass homogenising vessel on ice, containing oxygenated 0.32M sucrose solution (20 volumes). […] The homogenate was centrifuged at 1000×g for 10 minutes at 4° C. and the supernatant containing a suspension of synaptosomes was used in the dopamine uptake inhibition tests described below. […] A solution of ^14 C-dopamine hydrochloride (Amersham International) was added (0.2 ml) to give a final concentration of 0.17 μM. The incubation was continued for a further 5 minutes before the contents of the tubes were filtered under vacuum through Whatman GF/F filters which were washed with ice-cold Krebs solution (2×5 ml). The filters were placed in scintillation vials containing 10 ml scintillation fluid (ES-299 supplied by Packard Instruments) and the radioactivity in the vials counted on a Packard 4530 scintillation counter. In each experiment there was a control tube in which no test compound was present, 3 tubes in which the compound being tested was present at one of three concentrations (100, 10 and 1 μM) and a background tube containing no test compound which was maintained at 0° C. to determine passive ^14 C-dopamine uptake. The count for each tube was registered in counts per minute (cpm) and the % inhibition of uptake (I) calculated from the formula [formula] […] The concentration which gave 50% inhibition of uptake was then calculated and is given below as the IC50 figure for each experiment.
# plasma dopamine level = test: Dopamine level in the plasma of human subjects; assay type: in vivo; details: for Dopamine levels: human plasma, 2 h after administration
# Description: The mean value of domamine in picograms/ml is set out below at days 1, 4 and 7. Eight human subjects who were given placebo tablets provides plasma samples from which the mean control dopamine levels given below were obtained.
# [4] = test system: brain DOPAC (turnover of dopamine); test: Turnover of dopamine in rodent brains by determination of DOPAC concentrations (rat); assay type: in vivo, rat (Sprague-Dawley); details: 10 mg/kg oral, 2 h
# Description: as §1, §2
# One group of animals was killed two hours later. An additional group was administered probenecid (200 mg/kg i.p.; Sigma Chemical Co.) 30 minutes after the drug and then killed after a further 90 minutes. The animals were killed by decapitation and brains were rapidly removed and dissected on an ice-chilled porcelain plate. They were cut longitudinally along the midline; one half was retained for whole brain analysis while the striatum was dissected from the other. Tissues were immediately frozen in liquid N2 and stored over dry ice (-80° C.) until assay. Whole brain tissue was homogenised in 5 volumes 0.4M perchloric acid (containing 0.01% (w/v) Na2 S2 O3, 0.1% (w/v) EDTA) and striata in 600 μl using a Polytron (setting 6; 20 seconds) fitted with a microprobe (PT-7). Samples were then centrifuged at 30,000×g (whole brain samples) or at 3,500×g (striata) using a microfuge (Beckman) set up to take 1200 μl polypropylene tubes. Aliquots (50 μl) of the clear supernatants were then injected automatically into the chromatographic system for the separation and quantification of DOPAC.
# High pressure liquid chromatography (HPLC) combined with electrochemical detection (ECD) was employed to assay DOPAC. A mobile phase (0.1M CH3 OH (84:16%) containing 0.1% octanesulphonic acid, 0.1% EDTA and 0.01% Na2 S2 O3) was delivered by a Dupont 870 pump module at a flow-rate of 1.0 ml/min to a reverse-phase analytical column (25×0.4cm) and guard column (both packed with 5 μm Spherisorb ODS 2) maintained at 45° C. in a thermostatically controlled cabinet. Automatic sample injection was provided by a WISP 710B module (Waters Associates) and ECD was performed using a Bioanalytical Systems LC4A controller and cell, with a glassy carbon electrode maintained at +0.65 v versus a Ag-AgCl reference electrode. The controller was set at 20 nA full-scale and output from the cell recorded using a Spectra-Physics 4100 automatic computing integrator. Quantification of DOPAC was effected by the computing integrator after calibration of the HPLC-ECD system using DOPAC of known concentration and including isoprenaline as an internal standard. […]
# [5] = test system: dopamine reuptake; depletion of brain dopamine; test: In vivo inhibition of dopamine reuptake (prevention of α-methyl-m-tyrosine-induced depletion of brain dopamine); parameters: species or system rat (Sprague-Dawley); details: oral, three doses
# Description: An in vivo test for dopamine reuptake inhibition relies on the fact that such reuptake inhibitors can prevent the entry of dopamine-depleting agents into neurons. Depleting agents interfere with the neuronal storage mechanism for dopamine so dopamine leaks into the cytoplasm where it is metabolised by monoamine oxidase. Depleting agents therefore induce a large reduction in brain dopamine levels which can be measured experimentally. Prior treatment with a dopamine reuptake inhibitor reduces the depletion of dopamine levels caused by subsequent administration of a depleting agent such as α-methyl-m-tyrosine.
# Male Sprague-Dawley rats (180-220 g: Charles River) were randomly assigned to various treatment groups. […] Thirty minutes later, one vehicle treated group and all the test groups were given an i.p. injection (2 ml/kg) of the depleting agent α-methyl-m-tyrosine (25 mg/kg; Sigma Chemical Co.). […]
# Brain samples were thawed and homogenised in 4 volumes of 0.4M perchloric acid containing sodium metabisulphite (0.4 mM) and the internal standard 3,4-dihydroxybenzylamine (0.8 μM). […] Supernatants were removed and their dopamine concentration determined using an HPLC (high pressure liquid chromatography) system with fluorimetric detection.
# The percentage prevention (P) of depletion of brain dopamine levels by test compounds is calculated from the formula [formula] […]
compound,measurement,setting,value
"CC(C)CC(N(C)C)C1(c2ccc(Cl)cc2)CCC1.Cl.O (centres unmarked) [N,N-dimethyl-1-[1-(4-chlorophenyl)cyclobutyl]-3-methylbutylamine hydrochloride monohydrate]",Brain DOPAC Levels,"[1]; A (drug alone), control 74 ± 5",54 ± 3 ng/g wet wt
same,Brain DOPAC Levels,"[1]; B (with probenecid 200 mg/kg i.p.), control 116 ± 8",54 ± 3 ng/g wet wt
same,% Inhibition of dopamine uptake - Mean (± SEM),[2]; 1 hr after dosing,45.0 ± 4.1%
same,% Inhibition of dopamine uptake - Mean (± SEM),[2]; 3 hrs after dosing,63.0 ± 1.7%
same,% Inhibition of dopamine uptake - Mean (± SEM),[2]; 8 hrs after dosing,73.4 ± 3.5%
same,% Inhibition of dopamine uptake - Mean (± SEM),[2]; 24 hrs after dosing,31.5 ± 2.4%
same,% Inhibition of dopamine uptake - Mean (± SEM),[2]; 48 hrs after dosing,19.5 ± 5.2%
same,% Inhibition of dopamine uptake - Mean (± SEM),[2]; 72 hrs after dosing,10.4 ± 1.6%
same,persistence of inhibition of dopamine uptake by rat plasma (in words),[2]; single 30 mg/kg oral dose,persists for a considerable period of time after dosing
same,% Inhibition of uptake,"[3]; 1 μM, Ex.1",31%
same,% Inhibition of uptake,"[3]; 1 μM, Ex.2",4%
same,% Inhibition of uptake,"[3]; 1 μM, Ex.3",12%
same,% Inhibition of uptake,"[3]; 10 μM, Ex.1",70%
same,% Inhibition of uptake,"[3]; 10 μM, Ex.2",35%
same,% Inhibition of uptake,"[3]; 10 μM, Ex.3",48%
same,% Inhibition of uptake,"[3]; 100 μM, Ex.1",96%
same,% Inhibition of uptake,"[3]; 100 μM, Ex.2",81%
same,% Inhibition of uptake,"[3]; 100 μM, Ex.3",86%
same,inhibition of 14C-dopamine uptake (in words),"[3]; 100, 10 and 1 μM",inhibited ^14 C-dopamine uptake in a concentration-dependent manner
same,IC50,"[3]; Ex.1, 37° C., read-out: IC50",3.3 µM
same,IC50,"[3]; Ex.2, 37° C., read-out: IC50",18 µM
same,IC50,"[3]; Ex.3, 37° C., read-out: IC50",11 µM
same,IC50,"[3]; mean of three replicate experiments, read-out: mean (±SEM) IC50 value for inhibition of dopamine uptake",11 ± 4.2 µM
same,Dopamine levels,"plasma dopamine level; Day 1, 30 mg per day, control 122",254 pg/mL
same,Dopamine levels,"plasma dopamine level; Day 4, 30 mg per day, control 110",294 pg/mL
same,Dopamine levels,"plasma dopamine level; Day 7, 30 mg per day, control 118",219 pg/mL
same,plasma dopamine levels (in words),"plasma dopamine level; human subjects, 30 mg dose",plasma dopamine levels had increased
same,Brain DOPAC Levels,"[4]; A (drug alone), striatum, control 921 ± 56",601 ± 17 ng/g wet wt
same,Brain DOPAC Levels,"[4]; A (drug alone), whole brain, control 62 ± 5",36 ± 4 ng/g wet wt
same,Brain DOPAC Levels,"[4]; B (with probenecid 200 mg/kg i.p.), striatum, control 1325 ± 79",920 ± 70 ng/g wet wt
same,Brain DOPAC Levels,"[4]; B (with probenecid 200 mg/kg i.p.), whole brain, control 169 ± 3",130 ± 9 ng/g wet wt
same,prevention of brain dopamine depletion (in words),[5],dose-dependent prevention of brain dopamine depletion
